Experimental findings from ChEMBL document CHEMBL1201862, “PubChem BioAssay data set” (2004) are described below.

Test systems include UO-31; HCT-116; SNB-19; CCRF-CEM; LOX IMVI; HCC 2998; SF-539; RXF 393; ACHN; A549; TK-10; EKVX; K562; RPMI-8226; U-251; SF-295; COLO 205; MOLT-4; SNB-75; SK-OV-3.
Common to all, as to assay: growth of human tumour cells (NCI), 48 h

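1) Cells in 96-well plates. 2) Compound, 48 h, 5 concentrations. 3) Linear interpolation between surrounding doses. 4) Unreached endpoint = highest concentration. Here, GI50 denotes the concentration required for 50% inhibition of growth.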 The source made the active and inactive calls. Rule as the data show it: active = GI50 up to about 1.1 µM and inactive = higher. Where only a bound is given, the exact number is not on record here.

Regarding `O=[N+]([O-])c1ccc2sc(/C=N/c3ccc(O)cc3)cc2c1`, the GI50 in the assay on UO-31 is 41 µM (inactive); with HCT-116, 27.9 µM (inactive); in the assay with SNB-19, 34 µM (inactive); in the assay with CCRF-CEM, 15.3 µM (inactive); in the assay on LOX IMVI, 23.3 µM (inactive); in the assay with HCC 2998, 21.8 µM (inactive). Further, the GI50 in the assay with SF-539 was 22 µM (inactive); with RXF 393 it was 21.5 µM (inactive); in the assay with ACHN, 32.2 µM (inactive); in the assay with A549 it was 48 µM (inactive); in the assay on TK-10, 63.7 µM (inactive); in the assay on EKVX, 48.1 µM (inactive). The GI50 with K562 is 18.1 µM (inactive); in the assay on RPMI-8226, 22.3 µM (inactive); with U-251 it was 19.8 µM (inactive); with SF-295 it was 42.3 µM (inactive); in the assay with COLO 205, 38 µM (inactive); in the assay with MOLT-4, 15.8 µM (inactive). For the same compound, the figures for the GI50 in the assay with SNB-75 and in the assay on SK-OV-3 were 25.8 µM (inactive) and 84.7 µM (inactive), respectively.
As to `CCOC(=O)CC(=O)Nc1cccc2sc3ncccc3c(=O)c12`, the GI50 is 25.7 µM (inactive) with UO-31; 46 µM (inactive) with HCT-116; 51.3 µM (inactive) in the assay on SNB-19; 10.8 µM (inactive) in the assay on CCRF-CEM; 19 µM (inactive) in the assay on LOX IMVI; 25.9 µM (inactive) with HCC 2998. Further, the GI50 with SF-539 is 41.7 µM (inactive); in the assay with RXF 393 it was 3.09 µM (inactive); in the assay on ACHN, 33.3 µM (inactive); in the assay with A549 it was 18.4 µM (inactive); in the assay with TK-10, 34.4 µM (inactive); with EKVX it was 65.8 µM (inactive). Besides, the GI50 was 20.6 µM (inactive) with K562; 35.6 µM (inactive) with RPMI-8226; 32.6 µM (inactive) in the assay with U-251; 43.5 µM (inactive) in the assay on SF-295; 68.2 µM (inactive) in the assay on COLO 205; 10 µM (inactive) in the assay with MOLT-4. Besides, the GI50 in the assay with SNB-75 was 12.9 µM (inactive); with SK-OV-3, 22.4 µM (inactive).
With `CCN(/C=C1/C(=O)C(c2ccccc2)N(c2ccccc2)C1=O)CC` (stereo not given), the GI50 in the assay on UO-31, with HCT-116, with SNB-19, in the assay with CCRF-CEM, with LOX IMVI and with HCC 2998 was > 10 µM (inactive) in each case. In addition, the GI50 in the assay with SF-539, in the assay on RXF 393, in the assay on ACHN, in the assay with A549, in the assay on TK-10 and with EKVX was > 10 µM (inactive) in each case. The GI50 in the assay with K562, in the assay on RPMI-8226, in the assay on U-251, with SF-295, in the assay with COLO 205 and in the assay with MOLT-4 was > 10 µM (inactive) each time. The GI50 is 6.44 µM (inactive) in the assay on SNB-75 and > 10 µM (inactive) in the assay with SK-OV-3.
Take `CCOC(=O)NC(=O)c1cn(CCCOC(=O)CCCCCCCCC(=O)OCCCn2cc(C(=O)NC(=O)OCC)c(=O)n(C)c2=O)c(=O)n(C)c1=O`: the GI50 in the assay on UO-31 was > 100 µM (inactive); in the assay with HCT-116 it was > 100 µM (inactive); in the assay on SNB-19 it was 67 µM (inactive); in the assay on CCRF-CEM it was > 46.5 µM (inactive); with LOX IMVI, > 100 µM (inactive); in the assay with HCC 2998, > 100 µM (inactive). Moreover, the GI50 in the assay with SF-539 is > 68.7 µM (inactive); in the assay with RXF 393, > 82.8 µM (inactive); in the assay with ACHN it was > 100 µM (inactive); with A549 it was > 100 µM (inactive); in the assay with TK-10, > 86.5 µM (inactive); in the assay on EKVX it was > 100 µM (inactive). For the same compound, the GI50 with K562, in the assay on RPMI-8226, in the assay with U-251, with SF-295, with COLO 205 and in the assay on MOLT-4 was > 100 µM (inactive) throughout. The GI50 in the assay on SNB-75 is > 48.2 µM (inactive); in the assay on SK-OV-3, > 100 µM (inactive).
`CC(=O)O/C(=C1\C[C@H]2[C@@H]3CC=C4C[C@@H](OC(C)=O)CC[C@]4(C)[C@H]3CC[C@]2(C)C1=O)C(F)(F)F`: the GI50 with UO-31 was 12.1 µM (inactive); in the assay on HCT-116 it was 6.15 µM (inactive); in the assay on SNB-19 it was 17.8 µM (inactive); with CCRF-CEM, 1.95 µM (inactive); in the assay with LOX IMVI it was 1.86 µM (inactive); in the assay with HCC 2998, 6.31 µM (inactive). Also, the GI50 in the assay on SF-539 is 7.24 µM (inactive); with RXF 393 it was 6.19 µM (inactive); in the assay on ACHN it was 16.2 µM (inactive); in the assay with A549, 15.3 µM (inactive); with TK-10, 12.2 µM (inactive); in the assay with EKVX, 12.7 µM (inactive). Also, the GI50 in the assay on K562 is 0.977 µM (active); in the assay on RPMI-8226 it was 4.08 µM (inactive); in the assay with U-251 it was 5.43 µM (inactive); with SF-295, 16.2 µM (inactive); with COLO 205 it was 10.8 µM (inactive); in the assay with MOLT-4, 2.59 µM (inactive). The GI50 in the assay with SNB-75 is 21.9 µM (inactive); with SK-OV-3, 20.1 µM (inactive).
Take `Cn1c(=O)c2[nH]c(/N=N\n3ccc4ccccc43)nc2n(C)c1=O`: the GI50 in the assay on UO-31, in the assay on HCT-116, in the assay on SNB-19, with CCRF-CEM, in the assay on LOX IMVI and in the assay on HCC 2998 was > 100 µM (inactive) in each case. In addition, the GI50 with SF-539, in the assay with RXF 393, in the assay on ACHN, in the assay with A549, in the assay with TK-10 and in the assay with EKVX was > 100 µM (inactive) each time. Further, the GI50 in the assay on K562, in the assay with RPMI-8226, in the assay on U-251, in the assay with SF-295, with COLO 205 and with MOLT-4 was > 100 µM (inactive) in each case. Moreover, the GI50 in the assay with SNB-75 and with SK-OV-3 was > 100 µM (inactive) throughout.
Consider `O=[N+]([O-])c1oc2ccc3ccccc3c2c1CCO`, for which the GI50 in the assay with UO-31 was 1.64 µM (inactive); in the assay with HCT-116, 2.29 µM (inactive); with SNB-19 it was 7.24 µM (inactive); with CCRF-CEM, 3.86 µM (inactive); in the assay on LOX IMVI, 2.14 µM (inactive); with HCC 2998, 0.435 µM (active). For the same compound, the GI50 is 3.28 µM (inactive) with SF-539; 1.58 µM (inactive) in the assay on RXF 393; 1.58 µM (inactive) in the assay with ACHN; 1.9 µM (inactive) in the assay on A549; 4.97 µM (inactive) in the assay with TK-10; 0.447 µM (active) with EKVX. The GI50 was 1.96 µM (inactive) in the assay with K562; 3.96 µM (inactive) in the assay with RPMI-8226; 9.44 µM (inactive) with U-251; 1.57 µM (inactive) in the assay with SF-295; 0.346 µM (active) in the assay with COLO 205; 1.04 µM (active) in the assay on MOLT-4. Also, the GI50 in the assay with SNB-75 is 4.41 µM (inactive); in the assay with SK-OV-3 it was 1.05 µM (active).
`CCc1n[nH]c(=O)n1/N=C/c1ccccc1O`: the GI50 with UO-31, in the assay with HCT-116, in the assay on SNB-19, in the assay with CCRF-CEM, in the assay on LOX IMVI and in the assay with HCC 2998 was > 100 µM (inactive) throughout. For the same compound, the GI50 in the assay on SF-539, with RXF 393, with ACHN, in the assay with A549, with TK-10 and with EKVX was > 100 µM (inactive) each time. In addition, the GI50 in the assay with K562, in the assay with RPMI-8226, with U-251, in the assay on SF-295, with COLO 205 and in the assay with MOLT-4 was > 100 µM (inactive) each time. In addition, the GI50 in the assay with SNB-75 and in the assay with SK-OV-3 was > 100 µM (inactive) each time.
Turning to `Cc1nc2ccccc2c(=O)n1NC(=O)c1ccccn1`, the GI50 in the assay on UO-31, with HCT-116, in the assay with SNB-19, in the assay with CCRF-CEM, with LOX IMVI and in the assay with HCC 2998 was > 100 µM (inactive) throughout. Also, the GI50 in the assay with SF-539, with RXF 393, in the assay on ACHN, in the assay with A549, with TK-10 and in the assay with EKVX was > 100 µM (inactive) throughout. Besides, the GI50 in the assay on K562, with RPMI-8226, with U-251, with SF-295, in the assay on COLO 205 and with MOLT-4 was > 100 µM (inactive) throughout. Further, the GI50 in the assay with SNB-75 was 35.7 µM (inactive); in the assay on SK-OV-3 it was > 100 µM (inactive).
As for `C=C1[C@H](OCC(C)C)[C@@H](O)[C@@H](OC(=O)c2cccnc2)C(C)(C)/C=C/[C@H](C)[C@H](OC(C)=O)[C@@]2(O)C[C@@](C)(OC(C)=O)[C@H](OC(=O)c3ccccc3)[C@@H]2[C@H]1OC(C)=O`, the GI50 in the assay on UO-31 is 0.54 µM (active); with HCT-116, 1.59 µM (inactive); in the assay on SNB-19, 3.1 µM (inactive); with CCRF-CEM, 0.133 µM (active); with LOX IMVI, 1.17 µM (inactive); in the assay on HCC 2998, 0.19 µM (active). The GI50 is 0.482 µM (active) with SF-539; 4.24 µM (inactive) in the assay with RXF 393; 0.161 µM (active) in the assay on ACHN; 0.0459 µM (active) with A549; 1.07 µM (active) in the assay with TK-10; 1.04 µM (active) in the assay on EKVX. Moreover, the GI50 with K562 is 0.0585 µM (active); with RPMI-8226, 0.741 µM (active); with U-251, 1.34 µM (inactive); with SF-295, 0.371 µM (active); in the assay on COLO 205 it was 0.0713 µM (active); in the assay with MOLT-4 it was 0.138 µM (active). Besides, the GI50 was 0.134 µM (active) with SNB-75 and > 3.02 µM (inactive) in the assay on SK-OV-3.
